Legend:
[1] = target: T1, human muscarinic M3 receptor (Homo sapiens, UniProt P20309); assay: Cell based potency assessment, hM3 β-lactamase assay (CHO cell β-lactamase); conditions: CHO cells recombinantly expressing human M3, NFAT-β-lactamase reporter; inhibition of 80 nM carbamyl choline signal, 4 h; IC50 converted by Cheng-Prusoff
T1 construct: expressed in transfected cells; host or cells: CHO (CHO-K1) cells
Description: Cell BASED POTENCY ASSESSMENT at the Human Recombinant M3 Muscarinic Receptor
M3 potency was determined in CHO-K1 cells transfected with the NFAT-Betalactamase gene. CHO (Chinese Hamster Ovary) cells recombinantly expressing the human muscarinic M3 receptor were transfected with the NFAT_β-Lac_Zeo plasmid. Cells were grown in DMEM with Glutamax-1, supplemented with 25 mM HEPES (Life Technologies 32430-027), containing 10% FCS (Foetal Calf Serum; Sigma F-7524), […] Sodium pyruvate (Sigma S-8636), NEAA (non-Essential Amino Acids; Invitrogen 11140-035) and 200 μg/ml Zeocin (Invitrogen R250-01).
hM3 β-Lactamase Assay Protocol
Cells were harvested for assay when they reached 80-90% confluency using enzyme free cell Dissociation Solution (Life technologies 13151-014) incubated with the cells for 5 min at 37° C. in an atmosphere containing 5% CO2. Detached cells were collected in warmed growth media and centrifuged at 2000 rpm for 10 min, washed in PBS (Phosphate Buffered Saline; Life Technologies 14190-094) and centrifuged again as just described. The cells were re-suspended at 2×10^5 cells/ml in growth medium (composition as described above). 20 μl of this cell suspension was added to each well of a 384 well black clear bottomed plate (Greiner Bio One 781091-PFI). The assay buffer used was PBS supplemented with 0.05% Pluronic F-127 (Sigma 9003-11-6) and 2.5% DMSO. Muscarinic M3 receptor signalling was stimulated using 80 nM carbamyl choline (Aldrich N240-9) incubated with the cells for 4 h at 37° C./5% CO2 and monitored at the end of the incubation period using a Tecan SpectraFluor+plate reader (λ−excitation 405 nm, emission 450 nm and 503 nm). M3 receptor antagonists under test were added to the assay at the beginning of the 4 h incubation period and compound activity measured as the concentration dependent inhibition of the carbamyl choline induced signal. Inhibition curves were plotted and IC50 values generated using a 4-parameter sigmoid fit and converted to Ki values using the Cheng-Prusoff correction and the KD value for carbamyl choline in the assay.

[2] = target: T1, human muscarinic M3 receptor; assay: hM3 competition binding assay (3H-NMS, CHO cell membranes); conditions: CHO cell membranes expressing human M3; 3H-NMS at 5×KD, 24 hr at RT; IC50 corrected by Cheng-Prussoff
Description: Binding Affinity Assessment at the Human Recombinant M3 Muscarinic Receptor
Cell Pellets from CHO (Chinese Hamster Ovary) cells recombinantly expressing the human muscarinic M3 receptor were homogenised in 20 mM HEPES (pH7.4) and centrifuged at 48000×g for 20 min at 4° C. The pellet was re-suspended in buffer and the homogenisation and centrifugation steps repeated. The resulting pellet was re-suspended in 1 ml buffer per 1 ml original packed cell volume and the homogenisation step repeated. Protein estimation was carried out on the suspension and 1 ml aliquots of ˜1 mg/ml frozen at −80° C.
hM3 Competition Binding Assay Protocol
Membranes (5 µg/well) were incubated with ^3H-NMS (at a concentration 5×KD) plus/minus test compound for 24 hr at RT (room temperature) in a 1 ml polystyrene 96-well deep well block. The final assay volume was 200 µl, comprising of: 20 µl plus/minus test compound; 20 µl ^3H-NMS (Perkin Elmer NEN 636) and 160 µl membrane solution. Total Binding was defined with 0.1% DMSO; Non-Specific Binding was defined with 1 µM Atropine. Assay buffer was 20 mM Hepes (pH 7.4).
Once all assay components were added, plates were covered and incubated at room temperature for 24 hrs with shaking. The assay was terminated by rapidly filtering through GF/B Unifilter plates pre-soaked with 0.5% polyethylenimine, using a Packard filtermate harvester, the filter plate was then washed with 3×1 ml 4° C. assay buffer. The filter plates were dried at 45° C. for 1 hour. The bottoms of the filter plates were sealed and 50 µl/well of Microscint ‘0’ added, the top of the plates were sealed with a Topseal. Following 90 mins, the plates were read on an NXT Topcount (1 minute read time per well).
The resulting data was expressed as a percentage of the specific binding (Specific binding=Total binding−Non-Specific Binding). % specific binding versus test compound concentration was plotted to determine an IC50 from a sigmoid curve using an in-house data analysis programme. IC50 values corrected to Ki values by applying the Cheng-Prussoff equation: […]
where IC50 is the concentration of unlabelled drug which inhibits by 50% the specific radioligand binding. [L] is the free radioligand concentrations and KD and Ki are the equilibrium dissociation constants of the radioligand and unlabelled drug respectively.

T1 sequence (P20309 whole entry): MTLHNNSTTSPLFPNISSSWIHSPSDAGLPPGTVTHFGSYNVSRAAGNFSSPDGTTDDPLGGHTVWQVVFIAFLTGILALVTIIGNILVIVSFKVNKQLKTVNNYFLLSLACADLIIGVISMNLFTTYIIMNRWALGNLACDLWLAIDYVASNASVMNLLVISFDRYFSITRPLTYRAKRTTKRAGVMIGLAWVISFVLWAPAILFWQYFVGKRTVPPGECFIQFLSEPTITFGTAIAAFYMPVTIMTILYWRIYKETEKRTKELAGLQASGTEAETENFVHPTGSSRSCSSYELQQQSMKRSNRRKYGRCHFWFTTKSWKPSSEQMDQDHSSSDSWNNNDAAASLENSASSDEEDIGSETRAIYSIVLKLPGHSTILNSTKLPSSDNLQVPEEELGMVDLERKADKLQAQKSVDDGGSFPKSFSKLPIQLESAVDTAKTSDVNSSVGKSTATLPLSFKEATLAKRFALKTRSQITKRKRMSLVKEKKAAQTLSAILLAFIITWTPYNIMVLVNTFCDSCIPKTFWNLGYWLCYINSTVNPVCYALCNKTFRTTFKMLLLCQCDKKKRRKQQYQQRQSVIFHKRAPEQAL

Row | SMILES | Ki [1] [nM] | Ki [2] [nM]
1 | O=C(Nc1ccccc1-c1ccccc1)OC1CCN(CCCCCCCCCNCc2cccc(O)c2F)CC1 [Example 2, Biphenyl-2-yl-carbamic acid 1-[9-(2-fluoro-3-hydroxy-benzylamino)-nonyl]-piperidin-4-yl ester] | 0.84 | 1.05
2 | O=C(Nc1ccccc1-c1ccccc1)OC1CCN(CCCCCCCCCNCc2cc(F)cc(Cl)c2O)CC1 [Example 3, Biphenyl-2-yl-carbamic acid 1-[9-(3-chloro-5-fluoro-2-hydroxy-benzylamino)-nonyl]-piperidin-4-yl ester] | 0.779 | 2.33
3 | O=C(Cc1ccc(O)c(Cl)c1)NCCCCCCCCCN1CCC(OC(=O)Nc2ccccc2-c2ccccc2)CC1 [Example 4, Biphenyl-2-yl-carbamic acid 1-{9-[2-(3-chloro-4-hydroxy-phenyl)-acetylamino]-nonyl}-piperidin-4-yl ester] | 0.0415 | 1.19
4 | O=C(Nc1ccccc1-c1ccccc1)OC1CCN(CCCCCCCCCNCc2cccc(O)c2Cl)CC1 [Example 5, Biphenyl-2-yl-carbamic acid 1-[9-(2-chloro-3-hydroxy-benzylamino)-nonyl]-piperidin-4-yl ester] | 0.894 | 0.521
5 | O=C(Nc1ccccc1-c1ccccc1)OC1CCN(CCCCCCCCCNC(=O)c2ccc(F)c(O)c2)CC1 [Example 7, Biphenyl-2-yl-carbamic acid 1-[9-(4-fluoro-3-hydroxy-benzoylamino)-nonyl]-piperidin-4-yl ester] | 1.36 | 0.997
6 | O=C(Nc1ccccc1-c1ccccc1)OC1CCN(CCCCCCCCCNC(=O)c2cccc(Cl)c2O)CC1 [Example 11, Biphenyl-2-yl-carbamic acid 1-[9-(3-chloro-2-hydroxy-benzoylamino)-nonyl]-piperidin-4-yl ester] | 8.15 | 2.24
7 | CN(CCCCCCCCCN1CCC(OC(=O)Nc2ccccc2-c2ccccc2)CC1)C(=O)c1ccc(F)c(O)c1 [Example 16, Biphenyl-2-yl-carbamic acid 1-{9-[(4-fluoro-3-hydroxy-benzoyl)-methyl-amino]-nonyl}-piperidin-4-yl ester] | 0.389 | 2.98

The remaining molecules from weak to strong by Ki [1], led by results:

Row | Ki [1] [nM] | Ki [2] [nM] | SMILES
8 | 4.51 | – | O=C(Nc1ccccc1-c1ccccc1)OC1CCN(CCCCCCCCCNC(=O)c2ccc(F)cc2O)CC1 [Example 26, Biphenyl-2-yl-carbamic acid 1-[9-(2-hydroxy-4-fluoro-benzoylamino)-nonyl]-piperidin-4-yl ester]
9 | 2.68 | 4.81 | O=C(Nc1ccccc1-c1ccccc1)OC1CCN(CCCCCCCCCNC(=O)c2cccc(F)c2O)CC1 [Example 8, Biphenyl-2-yl-carbamic acid 1-[9-(3-fluoro-2-hydroxy-benzoylamino)-nonyl]-piperidin-4-yl ester]
10 | 0.803 | 1.07 | O=C(Cc1ccc(O)c(F)c1)NCCCCCCCCCN1CCC(OC(=O)Nc2ccccc2-c2ccccc2)CC1 [Example 10, Biphenyl-2-yl-carbamic acid 1-{9-[2-(3-fluoro-4-hydroxy-phenyl)-acetylamino]-nonyl}-piperidin-4-yl ester]
11 | 0.396 | 2.37 | CN(CCCCCCCCCN1CCC(OC(=O)Nc2ccccc2-c2ccccc2)CC1)C(=O)Cc1ccc(O)c(Cl)c1 [Example 15, Biphenyl-2-yl-carbamic acid 1-(9-{[2-(3-chloro-4-hydroxy-phenyl)-acetyl]-methyl-amino}-nonyl)-piperidin-4-yl ester]
12 | 0.222 | 0.778 | O=C(Nc1ccccc1-c1ccccc1)OC1CCN(CCCCCCCCCNC(=O)c2ccc(O)c(F)c2)CC1 [Example 6, Biphenyl-2-yl-carbamic acid 1-[9-(3-fluoro-4-hydroxy-benzoylamino)-nonyl]-piperidin-4-yl ester]
13 | 0.0697 | 1.6 | O=C(Nc1ccccc1-c1ccccc1)OC1CCN(CCCCCCCCCNC(=O)c2ccc(O)c(Cl)c2)CC1 [Example 1, Biphenyl-2-yl-carbamic acid 1-[9-(3-chloro-4-hydroxy-benzoylamino)-nonyl]-piperidin-4-yl ester]
